According to patent US9573899B2, “USP7 inhibitor compounds and methods of use” (Genentech, Inc., priority 2015, dated 2017):

Key:
USP5 = target: T1, USP5 (Homo sapiens, UniProt P45974); assay: Ub-Rho110 DUB assay, Table 2, USP5
T1 sequence (P45974 1-858): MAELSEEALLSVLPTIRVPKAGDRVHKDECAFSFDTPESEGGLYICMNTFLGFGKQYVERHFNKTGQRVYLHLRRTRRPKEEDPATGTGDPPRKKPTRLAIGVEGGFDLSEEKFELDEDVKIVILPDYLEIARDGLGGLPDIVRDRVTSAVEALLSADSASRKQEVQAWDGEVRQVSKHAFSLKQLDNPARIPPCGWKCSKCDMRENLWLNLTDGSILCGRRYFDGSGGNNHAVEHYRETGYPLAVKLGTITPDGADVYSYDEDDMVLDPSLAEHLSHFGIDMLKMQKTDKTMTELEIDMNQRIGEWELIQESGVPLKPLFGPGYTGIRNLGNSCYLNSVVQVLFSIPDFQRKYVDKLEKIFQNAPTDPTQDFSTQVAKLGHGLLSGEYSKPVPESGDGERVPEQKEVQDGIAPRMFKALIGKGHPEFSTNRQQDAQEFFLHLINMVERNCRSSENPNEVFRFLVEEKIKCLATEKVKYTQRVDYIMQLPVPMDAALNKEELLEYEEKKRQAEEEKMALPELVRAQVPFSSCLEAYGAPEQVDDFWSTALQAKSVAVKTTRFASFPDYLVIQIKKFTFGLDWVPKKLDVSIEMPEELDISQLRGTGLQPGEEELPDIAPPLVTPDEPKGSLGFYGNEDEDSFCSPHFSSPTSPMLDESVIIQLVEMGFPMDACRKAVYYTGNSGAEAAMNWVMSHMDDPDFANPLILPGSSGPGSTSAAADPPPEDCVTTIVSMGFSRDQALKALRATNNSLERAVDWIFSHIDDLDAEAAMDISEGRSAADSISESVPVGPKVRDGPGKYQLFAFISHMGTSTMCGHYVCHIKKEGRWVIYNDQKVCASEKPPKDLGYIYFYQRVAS

USP7 catalytic domain = USP7 catalytic domain (Homo sapiens, UniProt Q93009); assay: Ub-Rho110 DUB assay, Table 2, USP7 catalytic domain; type: biochemical; details: read-out: Ub-Rho110 IC50, USP7 cat
USP7 catalytic domain, sequence (Q93009 214-521 limits assumed): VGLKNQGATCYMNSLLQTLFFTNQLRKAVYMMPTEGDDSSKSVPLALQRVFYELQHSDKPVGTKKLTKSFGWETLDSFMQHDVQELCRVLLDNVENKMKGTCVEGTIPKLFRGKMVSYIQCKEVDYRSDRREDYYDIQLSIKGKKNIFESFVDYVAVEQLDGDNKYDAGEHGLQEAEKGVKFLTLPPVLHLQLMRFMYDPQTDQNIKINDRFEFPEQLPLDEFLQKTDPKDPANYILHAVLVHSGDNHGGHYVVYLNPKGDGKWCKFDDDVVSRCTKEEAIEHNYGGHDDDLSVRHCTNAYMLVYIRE
Experimental: (§2) Biochemical USP7 assays using Ubiquitin-Rho110 as a substrate: The final assay conditions were as follows: The Reaction Buffer consisted of: 50 mM Tris (pH 7.5), 0.01% (v/v) Triton X-100, 2.5 mM Dithiothreitol, 0.1% (w/v) bovine gamma globulin (Sigma cat #G5009-25G); USP7, full-length, native C-Terminus, 0.2 nM; the substrate, Ubiquitin-Rho110 (Boston Biochem cat #U-555), 1 uM. Reactions were carried out for 1 hour at room temperature, in black 20 μL volume polystyrene ProxiPlate 384 F Plus® (PerkinElmer cat #6008260).
(§3) Test compounds, including a control USP7 inhibitor (Ub-aldehyde, Boston Biochem cat #U-201) were serially diluted in DMSO, in 384 well clear V-bottom polypropylene plates (Greiner cat #781280). Compounds in DMSO were diluted 10-fold into Reaction Buffer, to achieve 3-fold the final desired concentration. The substrate, Ubiquitin-Rho110 (Boston Biochem cat #U-555), was prepared at 3 μM (3-fold the final concentration) and 5 ul was dispensed into the reaction plate. 5 ul of the compounds (diluted in Reaction Buffer at 3-fold the final concentration) were transferred to the reaction plate. 5 ul of 0.6 nM USP7 (diluted in Reaction Buffer at 3-fold the final concentration) was transferred to the reaction plate to initiate the reaction. After 1 hour incubation at room temperature the reaction was quenched by the addition of 5 ul of 400 mM acetic acid. The enzymatic product was measured by quantifying the fluorescence signal of cleaved Rhodamine-110 using excitation at 485 nm and emission at 535 nm. When pre-incubation of USP7 with compounds was required, the order of addition of reagents was modified to pre-mix the compounds with USP7 (with a 1 hour incubation period), prior to the addition of the substrate and the initiation of the reaction period. Percentage inhibition values were calculated relative to a no enzyme control and a uninhibited enzyme control. Curve fitting and IC50 calculations were carried out using Genedata Screener software.

USP7 = target: T2, USP7 (Homo sapiens, UniProt Q93009); assay: Ub-Rho110 DUB assay, Table 2, USP7; type: biochemical; details: for selectivity of antagonism of USP7 catalytic activity over the DUBs evaluated: conclusion from Table 2 (USP7, USP7 cat, USP47, USP5)
T2 construct: USP7, full-length, native C-Terminus, 0.2 nM
T2 sequence (Q93009 whole entry): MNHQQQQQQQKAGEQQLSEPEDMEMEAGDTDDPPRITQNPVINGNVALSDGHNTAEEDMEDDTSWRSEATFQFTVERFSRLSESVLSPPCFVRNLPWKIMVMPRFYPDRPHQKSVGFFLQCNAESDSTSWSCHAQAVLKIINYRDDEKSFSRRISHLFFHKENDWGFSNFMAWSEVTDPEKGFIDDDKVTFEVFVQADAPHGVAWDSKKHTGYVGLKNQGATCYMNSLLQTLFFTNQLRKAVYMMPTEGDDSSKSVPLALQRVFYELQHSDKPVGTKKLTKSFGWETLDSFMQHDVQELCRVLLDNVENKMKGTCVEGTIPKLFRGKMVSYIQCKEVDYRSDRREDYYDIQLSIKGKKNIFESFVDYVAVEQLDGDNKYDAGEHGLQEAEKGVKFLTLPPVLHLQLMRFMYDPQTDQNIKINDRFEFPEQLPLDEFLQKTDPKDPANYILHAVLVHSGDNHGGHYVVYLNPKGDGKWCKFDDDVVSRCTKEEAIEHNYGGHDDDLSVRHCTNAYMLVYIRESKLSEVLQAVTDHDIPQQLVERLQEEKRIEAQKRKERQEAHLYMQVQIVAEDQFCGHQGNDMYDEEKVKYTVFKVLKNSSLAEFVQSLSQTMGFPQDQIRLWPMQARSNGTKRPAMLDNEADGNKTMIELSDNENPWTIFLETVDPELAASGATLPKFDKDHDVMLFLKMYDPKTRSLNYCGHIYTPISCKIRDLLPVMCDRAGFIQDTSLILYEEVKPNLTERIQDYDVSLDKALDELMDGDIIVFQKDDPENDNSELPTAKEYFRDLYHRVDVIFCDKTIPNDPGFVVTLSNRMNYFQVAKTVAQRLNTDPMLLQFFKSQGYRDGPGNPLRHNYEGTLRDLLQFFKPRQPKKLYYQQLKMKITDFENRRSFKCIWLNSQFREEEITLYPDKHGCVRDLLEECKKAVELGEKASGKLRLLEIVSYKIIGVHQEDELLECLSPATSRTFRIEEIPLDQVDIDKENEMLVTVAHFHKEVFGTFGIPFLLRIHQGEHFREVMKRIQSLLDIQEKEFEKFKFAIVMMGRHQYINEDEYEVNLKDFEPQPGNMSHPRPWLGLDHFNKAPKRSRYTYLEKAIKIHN
Experimental: as §2, §3

USP47 = target: T3, USP47 (Homo sapiens, UniProt Q96K76); assay: Ub-Rho110 DUB assay, Table 2, USP47; type: biochemical
T3 sequence (Q96K76 1-1375): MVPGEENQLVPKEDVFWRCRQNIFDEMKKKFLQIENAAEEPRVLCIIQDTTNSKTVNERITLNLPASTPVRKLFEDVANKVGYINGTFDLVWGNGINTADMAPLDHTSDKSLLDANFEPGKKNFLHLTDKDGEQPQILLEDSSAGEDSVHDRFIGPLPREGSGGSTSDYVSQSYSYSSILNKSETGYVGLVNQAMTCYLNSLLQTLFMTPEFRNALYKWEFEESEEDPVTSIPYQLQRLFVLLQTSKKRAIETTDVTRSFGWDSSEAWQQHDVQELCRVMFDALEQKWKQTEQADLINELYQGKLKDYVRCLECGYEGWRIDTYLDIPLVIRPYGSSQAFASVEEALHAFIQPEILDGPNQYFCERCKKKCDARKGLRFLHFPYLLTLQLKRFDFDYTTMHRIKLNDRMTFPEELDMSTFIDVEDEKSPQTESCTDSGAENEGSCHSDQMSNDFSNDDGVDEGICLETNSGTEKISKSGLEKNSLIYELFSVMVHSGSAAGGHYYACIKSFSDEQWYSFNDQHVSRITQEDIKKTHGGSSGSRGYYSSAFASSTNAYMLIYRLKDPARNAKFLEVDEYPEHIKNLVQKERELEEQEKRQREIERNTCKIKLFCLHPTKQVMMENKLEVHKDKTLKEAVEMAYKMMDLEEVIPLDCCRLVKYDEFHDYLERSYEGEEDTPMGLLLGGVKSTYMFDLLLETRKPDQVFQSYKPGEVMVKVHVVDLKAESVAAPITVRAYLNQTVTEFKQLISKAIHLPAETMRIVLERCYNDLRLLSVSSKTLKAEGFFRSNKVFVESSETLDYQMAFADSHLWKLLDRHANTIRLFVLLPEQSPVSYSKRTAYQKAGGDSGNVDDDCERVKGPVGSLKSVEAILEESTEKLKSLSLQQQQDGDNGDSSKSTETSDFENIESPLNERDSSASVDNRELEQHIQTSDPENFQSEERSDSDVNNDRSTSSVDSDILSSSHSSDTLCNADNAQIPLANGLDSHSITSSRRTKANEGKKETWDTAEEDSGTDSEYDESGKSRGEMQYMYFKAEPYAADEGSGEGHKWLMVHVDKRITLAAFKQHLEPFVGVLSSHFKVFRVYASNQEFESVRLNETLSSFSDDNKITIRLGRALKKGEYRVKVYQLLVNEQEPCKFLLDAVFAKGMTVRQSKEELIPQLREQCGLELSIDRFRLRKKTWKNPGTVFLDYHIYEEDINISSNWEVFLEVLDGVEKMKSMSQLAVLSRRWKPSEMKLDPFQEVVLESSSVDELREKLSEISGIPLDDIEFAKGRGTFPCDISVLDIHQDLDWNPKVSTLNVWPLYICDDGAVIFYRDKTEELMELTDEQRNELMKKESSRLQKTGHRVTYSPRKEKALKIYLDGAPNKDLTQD

[1] = tested on: p53 and p21 in HCT116 colon cancer cell lines; assay: Western blot of p53 and p21 in isogenic HCT116 cell lines (FIG. 2A); type: cell-based, Human; details: isogenic HCT116: wild-type, USP7 null
Experimental: (§1) In 24-well plates, 0.10-0.15×10^6 (adherent) or 0.5×10^6 (suspension) cells were treated with 15 μM or 2.5 μM compounds, respectively, for 24 h in low serum prior to lysis for Western Blot analysis.

[2] = target: T4, USP7, full-length, native C-Terminus (Homo sapiens, UniProt Q93009); assay: Biochemical USP7 assay with Ubiquitin-Rho110 substrate, compounds pre-incubated with USP7 (USP7_Ub-Rho preInc); details: compounds pre-mixed with USP7, 1 hour incubation, before substrate; read-out: USP7 Ub-Rho preInc (IC50)
T4 construct: USP7, full-length, native C-Terminus, 0.2 nM
T4 sequence (Q93009 whole entry): as the sequence (Q93009 whole entry) above
Method in brief: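 Full-length USP7 (0.2 nM) cleaving Ubiquitin-Rho110 (1 uM) in pH 7.5 Tris buffer with DTT, 1 h at room temperature, acetic-acid quenched; Rho110 fluorescence at 485/535 nm. Pre-incubation variant: compound and USP7 mixed 1 h before substrate addition. IC50 from % inhibition versus no-enzyme and uninhibited controls.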

[3] = tested on: colon cancer cell lines RKO and RKO-E6, and cervical cancer cell lines Vibo and SiHA; assay: Incucyte cell proliferation in RKO, RKO-E6, Vibo and SiHA cells (FIG. 15); type: cell-based
Experimental: 2,500-5,000 cells were seeded in 1-well of a 96-well plate (Corning; 3904). The following day, the media was changed from normal (10%) to low serum (0.5%) containing vehicle (DMSO) or compounds. 16-24 h later FBS was added to each well to bring serum levels back to normal (10%). Cells were then allowed to grow for 2 days. All treatments were done in triplicate. The day after cells were seeded, the media was changed to low serum media containing 2 μM CellEvent Caspase 3/7 reagent (Life Technologies; C10423) and compounds. The plates were placed in an IncuCyte (Essen Bioscience, Inc.) live cell imager and scanning was started 15-20 mins after. IncuCyte™ ZOOM facilitates live-cell monitoring via customized imaging protocols. Images were taken every 2 h for at least 3 days, using a 10× objective. Phase contrast was used to measure cell confluency/density while green fluorescence was used to measure caspase activity. The images were analyzed using IncuCyte software (Basic Analysis parameters) and a ratio of caspase activity to cell density was determined.

[4] = tested on: MDM2 in MCF7 breast cancer cells; assay: MDM2 turnover in MCF7 cells with cycloheximide (FIG. 3A); type: cell-based; details: 15 μM, in the presence of cycloheximide (CHX)
Experimental: In 24-well plates, 0.15×10^6 MCF-7 cells were treated for a total of 8 h with DMSO or compounds (15 μM). During that 8 h, cycloheximide (CHX) was added for the indicated times prior to harvest.

[5] = tested on: p53, p21, MDM2 and E6AP in RKO, RKO-E6, Vibo and SiHA cell lines; assay: Western blot in RKO, RKO-E6, Vibo and SiHA cells (FIG. 14A); type: cell-based
Experimental: as §1

IC50 (USP5) | IC50 (USP7 catalytic domain) | IC50 (USP7) | IC50 (USP47) | IC50 [2] | SMILES | selectivity of antagonism of USP7 catalytic activity over the DUBs evaluated (USP7) | stabilization of p53 and p21 (western blot) [1] | cell viability (Incucyte cell proliferation) [3] | destabilizing effect on MDM2 (western blot) [4] | effect on p53, p21, MDM2 and E6AP (western blot) [5]
> 200 µM | > 63.3 µM | > 63.3 µM | > 200 µM | – | CCc1c(-c2ccc(O)cc2)cnc(N)c1-c1ccc(COC)cc1 [Compound 25, 4-[6-amino-4-ethyl-5-[4-(methoxymethyl)phenyl]-3-pyridyl]phenol] | ineffective in antagonizing the activity of any DUB evaluated | stabilize p53 and p21 | – | – | –
> 200 µM | 1.3 µM | 2.9 µM | > 200 µM | 2.6 µM | CCc1c(-c2ccc(C(N)=O)cc2)cnc(N)c1-c1ccc(O)cc1 [Compound 45, 4-[6-amino-4-ethyl-5-(4-hydroxyphenyl)-3-pyridyl]benzamide] | selective antagonists of USP7 catalytic activity | not | – | – | –
– | 0.53 µM | 1.4 µM | > 200 µM | 3.3 µM | CCc1c(-c2ccc(C(=O)NC)cc2)cnc(N)c1-c1ccc(O)cc1 [Compound 81, 4-[6-amino-4-ethyl-5-(4-hydroxyphenyl)-3-pyridyl]-N-methyl-benzamide] | – | – | – | – | –
> 200 µM | – | – | > 200 µM | – | CCc1c(-c2ccc3cn(C)nc3c2)cnc(N)c1-c1ccc(O)cc1 [Compound 89, 4-[2-amino-4-ethyl-5-(2-methylindazol-6-yl)-3-pyridyl]phenol] | – | not | not | less active | stabilize p53, p21, and destabilize MDM2 and E6AP
